Measurements published in paper PMC11190158, “Study on the design, synthesis, and activity of anti-tumor staple peptides targeting MDM2/MDMX” (Frontiers in Chemistry, 2024).
pIC50: −log10 of the molar value. ≈ marks a conversion by molar mass, not a printed value. Entries after “also recorded” stand apart in the source; their conditions may differ. Values belong to the molecule of their own block, whether it stands above or below them. Positions of bridges follow the written chain, without caps; N, C: chain ends. Non-standard residues stand in square brackets, D forms with d. Residues, ends and D or L forms follow the SMILES beside them. R8 = C=CCCCCCC[C@@](C)(N)C(=O)O; S5 = C=CCCC[C@](C)(N)C(=O)O

What was measured:
[1] = tested on: HCT116 p53^−/−; conditions: 72 h
[2] = tested on: U251; conditions: for concentration at which in vitro anti-tumor activity was exhibited: U251 tumor cells, CCK-8
[3] = tested on: HCT116 p53^+/+; conditions: 72 h
[4] = Circular dichroism, degree of helicity; type: physicochemical; conditions: CD, PB pH 7.2, 10–50 mmol/L peptide, ambient temperature, 1-mm path length, 185–255 nm
Protocol: The staple peptides were soluble in PB with a pH of 7.2 at a concentration of 10–50 mmol/L. CD experiments were performed using a Jasco J-715 Spectropolarimeter at ambient temperature. A quartz cuvette with a 1-mm path length was used for the spectrum collection (wavelength, 185–255 nm; step resolution, 0.0001 mm; speed, 1.2 μm/h; accumulations, 6; and bandwidth, 0.0001 mm). We calculated the helicity of each peptide using Eq.

[5] = circular dichroism; conditions: phosphate buffer (PB); pH 7.2; ns °C; 10-50 (printed mmol/L, probably uM)
[6] = tested on: U87 MG; conditions: for concentration at which in vitro anti-tumor activity was exhibited: U87 MG tumor cells, CCK-8
[7] = tested on: tumor cells; experiment: Cytotoxicity / cell viability assay (CCK-8), cell line not given; type: cell-based, human; conditions: for concentration at which in vitro anti-tumor activity was exhibited: compared to linear peptide M3-1, cell line not named; for anti-proliferative / tumor suppressive activity (in words): HCT116 p53^+/+, HCT116 p53−/−, U87 and U251 cell viability experiments, versus template straight-chain peptide
Protocol: Human colon cancer cell lines HCT116 p53^+/+, HCT116 p53^−/−, U87 MG, and U251 were maintained in McCoy’s 5A Medium supplemented with 10% heat-inactivated FCS and 1% penicillin–streptomycin at 37°C, 5% CO2, and under complete humidification conditions. The cells (3×10^3 cells/well) were inoculated in 96-well plates and treated with different concentrations of polypeptides for 72 h. The absorbance at 450 nm was then measured using the CCK-8 Kit, and the percentage of cell survival was calculated based on the ratio of the sample well to the reference well A450.

[8] = tested on: U251; experiment: Apoptosis assay (Annexin V/PI, flow cytometry); type: cell-based, human; design: LR / UR / LR+UR: unit not given here; conditions: for LR+UR: total apoptosis
Protocol: (§1) Fluorescent probes were used to detect normal viable cells, apoptotic cells, and necrotic cells by double labeling of cells, and the morphological characteristics of the apoptotic cells were explored. A Petri dish with 8–90% confluence was taken from the incubator. Tumor cells were collected, and the cells were counted under the microscope through the cell slide. A cell suspension of the appropriate concentration was prepared. Different concentrations of peptide samples were added according to the experimental group. Three compound wells were set up in each group; the control group was set up without peptides, and the blank group was set up without cells. Then, 300 μL of Binding Buffer was added after 24 h of dosing, and 2 μL of Annexin V was added to each tube, pipetted to mix it well, and then incubated at room temperature in the dark for 15 min. Then, 2 μL of PI solution was added before placing it on the machine, and one tube without dye was used as a negative control. On-machine assays were performed with flow cytometry. […] Total apoptosis = LR region + UR region.

[9] = tested on: U251; experiment: Apoptosis assay (Annexin V/PI, flow cytometry); type: cell-based, human; conditions: U251, 20 μM, 36 h (legend; method 24 h), mean
[10] = tested on: U87 MG; experiment: Apoptosis assay (Annexin V/PI, flow cytometry); type: cell-based, human; design: LR / UR / LR+UR: unit not given here; conditions: for LR+UR: total apoptosis
Protocol: as §1, with “Then, 300 μL of Binding Buffer was added after 24 h of dosing, and 2 μL of Annexin V was added to each tube, pipetted to mix it well, and then incubated at room temperature in the dark for 15 min.” left out

[11] = U251, 5 μM, sample 9 (replicate 1)
[12] = U251, 5 μM, sample 10 (replicate 2)
[13] = U251, 10 μM, sample 11 (replicate 1)
[14] = U251, 10 μM, sample 12 (replicate 2)
[15] = U251, 20 μM, sample 13 (replicate 1)
[16] = U251, 20 μM, sample 14 (replicate 2)
[17] = 20 μM, 36 h (legend; method 24 h), Annexin V/PI, mean

pIC50 [1]: 4.26
pIC50 ([2]; 72 h): 4.65
pIC50 [3]: 3.93
helicity [4]: 42.36%
pIC50 ([6]; 72 h): 4.72
Molecule: CSCC[C@H](NC(=O)[C@H](CC(C)C)NC(=O)[C@H](CCC(N)=O)NC(=O)[C@H](C)NC(=O)[C@H](Cc1c[nH]c2ccccc12)NC(=O)[C@H](Cc1ccc(O)cc1)NC(=O)[C@]1(C)CCCC=CCCC[C@](C)(NC(=O)[C@H](CCCCN)NC(C)=O)C(=O)N[C@@H]([C@@H](C)O)C(=O)N[C@@H](Cc2ccccc2)C(=O)N[C@@H](CC(C)C)C(=O)N1)C(=O)N[C@@H](CCC(N)=O)C(=O)N[C@@H](CCCCN)C(N)=O [SM3-1] (Ac-K[S5]TFL[S5]YWAQLMQK-NH2; staple 2-6)
concentration at which in vitro anti-tumor activity was exhibited [2]: 50 µM
helicity [5]: 42.4%
concentration at which in vitro anti-tumor activity was exhibited [6]: 25 µM
concentration at which in vitro anti-tumor activity was exhibited [7]: 25 µM

pIC50 [1]: 4.62
pIC50 ([2]; 72 h): 4.31
pIC50 [3]: 4.46
helicity [4]: 5.85%
pIC50 ([6]; 72 h): 4.51
Molecule: CSCC[C@H](NC(=O)[C@H](CC(C)C)NC(=O)[C@H](CCC(N)=O)NC(=O)[C@H](C)NC(=O)[C@H](Cc1c[nH]c2ccccc12)NC(=O)[C@]1(C)CCCC=CCCC[C@](C)(NC(=O)[C@H](CC(C)C)NC(=O)[C@H](CCCCN)NC(C)=O)C(=O)N[C@@H](Cc2ccccc2)C(=O)N[C@@H](CC(C)C)C(=O)N[C@@H](CCC(=O)O)C(=O)N1)C(=O)N[C@@H](CCC(N)=O)C(=O)N[C@@H](CCCCN)C(N)=O [SM3-2] (Ac-KL[S5]FLE[S5]WAQLMQK-NH2; staple 3-7)
concentration at which in vitro anti-tumor activity was exhibited [2]: 50 µM
helicity [5]: 5.85%
concentration at which in vitro anti-tumor activity was exhibited [6]: 25 µM
anti-proliferative / tumor suppressive activity (in words) [7]: significantly improved
concentration at which in vitro anti-tumor activity was exhibited [7]: 25 µM

pIC50 [1]: 4.59
pIC50 ([2]; 72 h): 4.03
pIC50 [3]: 4.81
helicity [4]: 38.10%
pIC50 ([6]; 72 h): 4.32
Molecule: CSCC[C@H](NC(=O)[C@H](CC(C)C)NC(=O)[C@H](CCC(N)=O)NC(=O)[C@]1(C)CCCC=CCCC[C@](C)(NC(=O)[C@H](Cc2ccccc2)NC(=O)[C@@H](NC(=O)[C@H](CC(C)C)NC(=O)[C@H](CCCCN)NC(C)=O)[C@@H](C)O)C(=O)N[C@@H](CCC(=O)O)C(=O)N[C@@H](Cc2ccc(O)cc2)C(=O)N[C@@H](Cc2c[nH]c3ccccc23)C(=O)N1)C(=O)N[C@@H](CCC(N)=O)C(=O)N[C@@H](CCCCN)C(N)=O [SM3-3] (Ac-KLTF[S5]EYW[S5]QLMQK-NH2; staple 5-9)
concentration at which in vitro anti-tumor activity was exhibited [2]: 100 µM
helicity [5]: 38.1%
concentration at which in vitro anti-tumor activity was exhibited [6]: 50 µM
concentration at which in vitro anti-tumor activity was exhibited [7]: 25 µM

pIC50 [1]: 4.48
pIC50 ([2]; 72 h): 4.83
pIC50 [3]: 4.11
helicity [4]: 28.96%
pIC50 ([6]; 72 h): 5.11
Molecule: CSCC[C@H](NC(=O)[C@H](CC(C)C)NC(=O)[C@]1(C)CCCC=CCCC[C@](C)(NC(=O)[C@H](CC(C)C)NC(=O)[C@H](Cc2ccccc2)NC(=O)[C@@H](NC(=O)[C@H](CC(C)C)NC(=O)[C@H](CCCCN)NC(C)=O)[C@@H](C)O)C(=O)N[C@@H](Cc2ccc(O)cc2)C(=O)N[C@@H](Cc2c[nH]c3ccccc23)C(=O)N[C@@H](C)C(=O)N1)C(=O)N[C@@H](CCC(N)=O)C(=O)N[C@@H](CCCCN)C(N)=O [SM3-4] (Ac-KLTFL[S5]YWA[S5]LMQK-NH2; staple 6-10)
LR [8, 11]: 0.89
UR [8, 11]: 2.73
LR+UR [8, 11]: 3.62
LR [8, 12]: 0.47
UR [8, 12]: 1.92
LR+UR [8, 12]: 2.39
LR [8, 13]: 1.47
UR [8, 13]: 1.92
LR+UR [8, 13]: 3.39
LR [8, 14]: 1.12
UR [8, 14]: 1.94
LR+UR [8, 14]: 3.06
LR [8, 15]: 6.85
UR [8, 15]: 8.8
LR+UR [8, 15]: 15.65
LR [8, 16]: 4.92
UR [8, 16]: 13.66
LR+UR [8, 16]: 18.58
apoptotic effect (in words) ([8]; U251, 5, 10 and 20 μM): significant apoptotic effect
minimum inhibitory concentration ([2]; 72 h): 16 µM (≈ 29.3 µg/mL)
LR: apoptotic cells [9]: 5.885%
UR: dead cells [9]: 11.23%
LR ([10]; 5 μM, sample 1 (replicate 1)): 1.25
UR ([10]; 5 μM, sample 1 (replicate 1)): 3.07
LR+UR ([10]; 5 μM, sample 1 (replicate 1)): 4.32
LR ([10]; 5 μM, sample 2 (replicate 2)): 1.04
UR ([10]; 5 μM, sample 2 (replicate 2)): 3.27
LR+UR ([10]; 5 μM, sample 2 (replicate 2)): 4.31
LR ([10]; 10 μM, sample 3 (replicate 1)): 1.11
UR ([10]; 10 μM, sample 3 (replicate 1)): 6.12
LR+UR ([10]; 10 μM, sample 3 (replicate 1)): 7.23
LR ([10]; 10 μM, sample 4 (replicate 2)): 2.02
UR ([10]; 10 μM, sample 4 (replicate 2)): 3.16
LR+UR ([10]; 10 μM, sample 4 (replicate 2)): 5.18
LR: apoptotic cells [10, 17]: 29.91%
UR: dead cells [10, 17]: 42.285%
LR ([10]; 20 μM, sample 5 (replicate 1)): 26.96
UR ([10]; 20 μM, sample 5 (replicate 1)): 37.58
LR+UR ([10]; 20 μM, sample 5 (replicate 1)): 64.54
LR ([10]; 20 μM, sample 6 (replicate 2)): 32.86
UR ([10]; 20 μM, sample 6 (replicate 2)): 46.99
LR+UR ([10]; 20 μM, sample 6 (replicate 2)): 79.85
apoptotic effect (in words) ([10]; 5, 10 and 20 μM): significant apoptotic effect
helicity [5]: 29%
minimum inhibitory concentration ([6]; 72 h): 8 µM (≈ 14.7 µg/mL)
anti-proliferative / tumor suppressive activity (in words) [7]: significantly improved; also recorded: strongest anti-proliferative activity
concentration at which in vitro anti-tumor activity was exhibited [7]: 25 µM

pIC50 [1]: 4.56
pIC50 ([2]; 72 h): 4.44
pIC50 [3]: 4.56
helicity [4]: 42.85%
pIC50 ([6]; 72 h): 4.51
Molecule: CSCC[C@@H]1NC(=O)[C@H](CC(C)C)NC(=O)[C@H](CCC(N)=O)NC(=O)[C@@](C)(NC(=O)[C@H](Cc2c[nH]c3ccccc23)NC(=O)[C@H](Cc2ccc(O)cc2)NC(=O)[C@H](CCC(=O)O)NC(=O)[C@H](CC(C)C)NC(=O)[C@H](Cc2ccccc2)NC(=O)[C@@H](NC(=O)[C@H](CC(C)C)NC(=O)[C@H](CCCCN)NC(C)=O)[C@@H](C)O)CCCC=CCCC[C@@](C)(C(=O)N[C@@H](CCCCN)C(N)=O)NC1=O [SM3-5] (Ac-KLTFLEYW[S5]QLM[S5]K-NH2; staple 9-13)
concentration at which in vitro anti-tumor activity was exhibited [2]: 50 µM
helicity [5]: 42.9%
concentration at which in vitro anti-tumor activity was exhibited [6]: 25 µM
anti-proliferative / tumor suppressive activity (in words) [7]: significantly improved
concentration at which in vitro anti-tumor activity was exhibited [7]: 25 µM

pIC50 [1]: 4.75
pIC50 ([2]; 72 h): 4.03
pIC50 [3]: 4.76
helicity [4]: 52.02%
pIC50 ([6]; 72 h): 4.35
Molecule: CC(=O)N[C@@H](CCCCN)C(=O)N[C@@H](CC(C)C)C(=O)N[C@H](C(=O)N[C@@H](Cc1ccccc1)C(=O)N[C@]1(C)CCCCCCC=CCCC[C@@](C)(C(=O)N[C@@H](CCC(N)=O)C(=O)N[C@@H](CCCCN)C(N)=O)NC(=O)[C@H](CC(C)C)NC(=O)[C@H](CCC(N)=O)NC(=O)[C@H](C)NC(=O)[C@H](Cc2c[nH]c3ccccc23)NC(=O)[C@H](Cc2ccc(O)cc2)NC(=O)[C@H](CCC(=O)O)NC1=O)[C@@H](C)O [SM3-8] (Ac-KLTF[R8]EYWAQL[S5]QK-NH2; staple 5-12)
concentration at which in vitro anti-tumor activity was exhibited [2]: 100 µM
concentration at which in vitro anti-tumor activity was exhibited [6]: 50 µM
concentration at which in vitro anti-tumor activity was exhibited [7]: 25 µM

Molecule: Ac-KLTFLEYWAQLMQK-NH2
helicity [5]: 0.54%
